The source of these data is US10835624B2, “Compounds for imaging Tau protein aggregates” (AC IMMUNE S.A., priority 2016, dated 2020).

Marks after values point to notes of the source that are not given here.

One assay concerns the target amyloid-beta (Homo sapiens, UniProt P05067). In words: Binding affinity to amyloid-beta in AD brain homogenate. The following applies: non-radioactive derivatives; for IC50: human AD brain homogenate. On the procedure: (§1) 20 μg of human Alzheimer disease brain homogenate was incubated with a dilution series of each test compound (1000 to 0.06 nM) in the presence of 800 Bq of ^18F-labeled beta-amyloid binder. The samples were shaken at 110 rpm for 45 min at 37° C. Samples were then filtered through GF/B 96 well filter plates and washed twice with 300 μL assay buffer (PBS containing 0.1% BSA and 2% DMSO). Thereafter, filter plates were sealed and a Fuji Film Imaging Plate (BAS-SR2025) was placed on top. The imaging plate was analyzed after overnight exposition using a Fuji Film BAS-5000. Non-specific signal was determined with samples containing ^18F-labeled beta-amyloid binder in the presence of assay buffer without brain substrate and competitor. […] The unblocked ^18F-labeled beta-amyloid binder signal was defined as total binding. IC50 values were calculated by Prism V6 (GraphPad) setting total binding to 100%.

The target in another assay is T1, MAO B (Homo sapiens, UniProt P27338).
T1 construct: 20 μg of human brain homogenate (without AD pathology); from tissue; host or cells: human brain homogenate without AD pathology (healthy control)
T1 sequence (P27338 1-520): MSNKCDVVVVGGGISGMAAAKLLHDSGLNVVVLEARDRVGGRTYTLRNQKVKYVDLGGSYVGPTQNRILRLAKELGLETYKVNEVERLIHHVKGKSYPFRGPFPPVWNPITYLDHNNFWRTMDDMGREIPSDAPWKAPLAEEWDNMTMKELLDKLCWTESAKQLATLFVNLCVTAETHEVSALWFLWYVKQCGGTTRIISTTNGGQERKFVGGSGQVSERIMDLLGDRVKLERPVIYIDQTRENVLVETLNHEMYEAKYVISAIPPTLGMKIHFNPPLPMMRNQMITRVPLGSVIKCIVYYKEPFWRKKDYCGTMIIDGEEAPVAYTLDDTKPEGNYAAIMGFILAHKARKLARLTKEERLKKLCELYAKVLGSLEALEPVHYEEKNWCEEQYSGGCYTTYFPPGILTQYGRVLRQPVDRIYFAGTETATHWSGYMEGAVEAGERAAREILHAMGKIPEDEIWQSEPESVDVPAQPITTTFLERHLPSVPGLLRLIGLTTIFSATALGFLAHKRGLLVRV
Kind of assay: MAO B 18F-fluoro deprenyl competition assay in human HC brain homogenate. In kind it is binding. Also on record: Low affinity to MAO B (IC50 in HC homogenate): key: −: poor; ∘: moderate; +: good; ++: very good; +++: excellent. The procedure:
The samples were shaken at 110 rpm for 45 min at 37° C. Samples were then filtered through GF/B 96 well filter plates and washed twice with 300 μL assay buffer (PBS containing 0.1% BSA and 2% DMSO). Thereafter, filter plates were sealed and a Fuji Film Imaging Plate (BAS-SR2025) was placed on top. The imaging plate was analyzed after overnight exposition using a Fuji Film BAS-5000. […] IC50 values were calculated by Prism V6 (GraphPad) setting total binding to 100%.

In another assay the target is Tau (Homo sapiens, UniProt P10636). In words: Tau competition binding in human AD brain homogenate with 18F-labeled Tau binder. The arrangement: High affinity to Tau (IC50 in AD brain homogenate): key: −: poor; ∘: moderate; +: good; ++: very good; +++: excellent. The following applies: determined with non-radioactive F-1, F-2, F-3a; for IC50: human AD brain homogenate, read-out: IC50 for tau binding in AD brain homogenate. On the procedure:
as §1, with “of ^18F-labeled Tau binder. The” for “of ^18F-labeled beta-amyloid binder. The”, “containing ^18F-labeled Tau-reference binder in” for “containing ^18F-labeled beta-amyloid binder in”, “unblocked ^18F-labeled Tau-binder signal was” for “unblocked ^18F-labeled beta-amyloid binder signal was”

The target in another assay is T2, MAO A (Homo sapiens, UniProt P21397).
T2 construct: 20 μg of human brain homogenate (without AD pathology); from tissue; host or cells: human brain homogenate without AD pathology (healthy control)
T2 sequence (P21397 1-527): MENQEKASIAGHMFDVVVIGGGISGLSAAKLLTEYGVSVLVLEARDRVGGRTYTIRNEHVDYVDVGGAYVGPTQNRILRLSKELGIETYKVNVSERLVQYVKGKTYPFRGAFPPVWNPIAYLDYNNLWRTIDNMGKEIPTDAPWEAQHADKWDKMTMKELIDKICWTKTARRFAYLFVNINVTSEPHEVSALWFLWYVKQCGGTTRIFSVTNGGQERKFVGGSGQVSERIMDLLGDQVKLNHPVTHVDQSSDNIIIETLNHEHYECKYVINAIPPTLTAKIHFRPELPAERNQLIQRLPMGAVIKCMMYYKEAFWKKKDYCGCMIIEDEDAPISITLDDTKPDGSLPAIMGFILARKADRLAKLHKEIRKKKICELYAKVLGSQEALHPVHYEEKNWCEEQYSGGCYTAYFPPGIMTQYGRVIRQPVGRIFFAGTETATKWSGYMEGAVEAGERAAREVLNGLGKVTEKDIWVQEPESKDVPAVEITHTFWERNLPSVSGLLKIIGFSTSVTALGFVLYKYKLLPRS
In words: MAO A FEH competition assay in human HC brain homogenate. In kind it is binding. The arrangement: Low affinity to MAO A (IC50 in HC homogenate): key: −: poor; ∘: moderate; +: good; ++: very good; +++: excellent. The following applies: for IC50: human healthy control brain homogenate, FEH competition. The procedure:
as §1, with “human” for “human Alzheimer disease”, “homogenate (without AD pathology)” for “homogenate”, “MAO-A binder ([^18F]fluoroethyl harmine, FEH).” for “beta-amyloid binder.”, “FEH” for “beta-amyloid binder”

Where [1] appears, read: grade, non-radioactive derivatives.

Chain of Tau (P10636 623-708 limits assumed): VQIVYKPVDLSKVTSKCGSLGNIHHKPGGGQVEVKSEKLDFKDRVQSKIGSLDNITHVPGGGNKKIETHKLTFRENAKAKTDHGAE
Chain of amyloid-beta (P05067 672-711 limits assumed): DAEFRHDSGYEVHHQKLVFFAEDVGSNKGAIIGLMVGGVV

Turning to `[18F]c1ccc(-c2ccc3c(c2)[nH]c2ccncc23)cn1` [^18F-1], the half-inhibitory concentration (IC50) on amyloid-beta is more than 1 µM; on MAO B, 0.17 µM; at Tau it was less than 0.002 µM; on MAO A it was 0.005 µM.
As to `[18F]c1ccc(-c2ccc3c(n2)[nH]c2ccncc23)cn1` [^18F-2], the IC50 at amyloid-beta is more than 1 µM; on MAO B it was more than 1 µM; at Tau, less than 0.002 µM; at MAO A, 0.1 µM.
Consider `[18F]c1cc(-c2ccc3c(n2)[nH]c2ccncc23)ccn1` [^18F-3a], for which the “Low affinity to amyloid-beta (IC50 in AD brain homogenate)” value at amyloid-beta (grade) is given as “+++^a)”. Moreover, the half-inhibitory concentration (IC50) was more than 1 µM at amyloid-beta, more than 1 µM at MAO B, less than 0.002 µM on Tau and 1.1 µM at MAO A. Moreover, on MAO B (HC brain homogenate), the “Fold higher MAO B IC50 than compound 18F-1” value was more than 5 fold. At MAO B (setting [1]), the “Low affinity to MAO B (IC50 in HC homogenate)” value was “+++”. In addition, the “High affinity to Tau (IC50 in AD brain homogenate)” value at Tau (grade) is reported as “+++”. Further, the “Fold higher MAO A IC50 than compound 18F-1” value at MAO A (HC brain homogenate) amounted to 220 fold. In addition, the “Fold higher MAO A IC50 than compound 18F-2” value on MAO A (HC brain homogenate) is 11 fold. In addition, the “Low affinity to MAO A (IC50 in HC homogenate)” value on MAO A (setting [1]) is given as “+++”.

The term IC50 denotes the concentration that inhibits the measured activity by half.
